Assay results as given in US20180000085A1, “USE OF PICOLINAMIDE COMPOUNDS WITH FUNGICIDAL ACTIVITY” (DOW AGROSCIENCES LLC, priority 2014, published 2018).

Columns and labels:
[1] = system: Zymoseptoria tritici; assay: Leaf blotch of wheat (SEPTTR) disease control on wheat seedlings; type: in vivo; parameters: key to SEPTTR 1DP, HV activity at 100 ppm (% control rating) / SEPTTR 3DC, HV activity at 100 ppm (% control rating) / SEPTTR disease control, 1DP / SEPTTR disease control, 3DC / SEPTTR 1DP disease control rating, HV activity / SEPTTR 3DC disease control rating, HV activity / SEPTTR 3DC, LV activity at 125.1 g/H (% Control rating) / SEPTTR 1DP, LV activity at 125.1 g/H (% Control rating) / SEPTTR 1DP disease control rating, LV activity at 125.1 g/H / SEPTTR 3DC disease control rating, LV activity at 125.1 g/H / SEPTTR 3DC disease control rating, HV activity at 100 ppm / SEPTTR 1DP disease control rating, HV activity at 100 ppm / HV activity at 100 ppm SEPTTR 3DC (disease control rating) / HV activity at 100 ppm SEPTTR 1DP (disease control rating) / LV activity at 125.1 g/H SEPTTR 1DP (disease control rating) / LV activity at 125.1 g/H SEPTTR 3DC (disease control rating): A: > 80; B: ≤ 80; C: Not Tested; D: No Activity Observed in the Reported Assay; conditions: wheat leaf blotch; for SEPTTR 1DP disease control rating, HV activity / SEPTTR 3DC disease control rating, HV activity: HV application at 100 ppm
[2] = system: Puccinia triticina; assay: Wheat brown rust (PUCCRT) disease control on wheat seedlings; type: in vivo; parameters: key to PUCCRT 3DC, HV activity at 100 ppm (% control rating) / PUCCRT disease control, 3DC / PUCCRT 1DP disease control rating, HV activity / PUCCRT 3DC disease control rating, HV activity / PUCCRT 3DC, LV activity at 125.1 g/H (% Control rating) / PUCCRT 1DP, LV activity at 125.1 g/H (% Control rating) / PUCCRT 3DC disease control rating, LV activity at 125.1 g/H / PUCCRT 1DP disease control rating, LV activity at 125.1 g/H / PUCCRT 3DC disease control rating, HV activity at 100 ppm / PUCCRT 1DP disease control rating, HV activity at 100 ppm / HV activity at 100 ppm PUCCRT 3DC (disease control rating) / LV activity at 125.1 g/H PUCCRT 1DP (disease control rating) / LV activity at 125.1 g/H PUCCRT 3DC (disease control rating): A: > 80; B: ≤ 80; C: Not Tested; D: No Activity Observed in the Reported Assay; conditions: wheat brown rust; for PUCCRT 1DP disease control rating, HV activity / PUCCRT 3DC disease control rating, HV activity: HV application at 100 ppm
[3] = Low volume application at 125.1 g/H, 1 Day Protectant
[4] = Low volume application at 125.1 g/H, 3 Day Curative

Compound	SEPTTR 1DP disease control rating, HV activity ([1]; 1 Day Protectant)	SEPTTR 3DC disease control rating, HV activity ([1]; 3 Day Curative)	PUCCRT 1DP disease control rating, HV activity ([2]; 1 Day Protectant)	PUCCRT 3DC disease control rating, HV activity ([2]; 3 Day Curative)	SEPTTR 1DP disease control rating, LV activity [1, 3]	SEPTTR 3DC disease control rating, LV activity [1, 4]	PUCCRT 1DP disease control rating, LV activity [2, 3]	PUCCRT 3DC disease control rating, LV activity [2, 4]
COc1ccnc(C(=O)NC(C)C(=O)OC(C)C(OC(=O)C(C)C)C(C)C)c1O (centres unmarked) [Cmpd 399]	B (≤ 80)	D	B (≤ 80)	D				
COc1ccnc(C(=O)NC(C(=O)OC(C)C(Oc2cccc3ccccc23)C(C)C)C(C)C)c1O (centres unmarked) [Cmpd 400]	B (≤ 80)	B (≤ 80)	A (> 80)	B (≤ 80)				
COc1ccnc(C(=O)NC(C(=O)OC(C)C(Oc2ccc3ccccc3c2)C(C)C)C(C)C)c1O (centres unmarked) [Cmpd 401]	B (≤ 80)	B (≤ 80)	A (> 80)	B (≤ 80)				
CC[C@H](OC)[C@@H](Oc1ccc(Cl)cc1Cl)[C@H](C)OC(=O)[C@H](C)NC(=O)c1nccc(OC)c1O [Cmpd 402]	B (≤ 80)	B (≤ 80)	B (≤ 80)	B (≤ 80)				
CC[C@H](OC)[C@@H](Oc1ccccc1)[C@H](C)OC(=O)[C@H](C)NC(=O)c1nccc(OC)c1O [Cmpd 403]					B (≤ 80)	A (> 80)	A (> 80)	A (> 80)
CCC(CC)[C@@H](Oc1cccc(F)c1)[C@H](C)OC(=O)[C@@H](NC(=O)c1nccc(OC)c1O)C(C)C [Cmpd 404]	A (> 80)	D	B (≤ 80)	D				
CCC(CC)[C@@H](Oc1ccc(F)cc1)[C@H](C)OC(=O)[C@@H](NC(=O)c1nccc(OC)c1O)C(C)C [Cmpd 405]	B (≤ 80)	B (≤ 80)	A (> 80)	B (≤ 80)				
CCC(CC)[C@@H](Oc1cccc(Cl)c1)[C@H](C)OC(=O)[C@@H](NC(=O)c1nccc(OC)c1O)C(C)C [Cmpd 406]	B (≤ 80)	B (≤ 80)	B (≤ 80)	B (≤ 80)				
CCC(CC)[C@@H](Oc1ccc(Cl)cc1)[C@H](C)OC(=O)[C@@H](NC(=O)c1nccc(OC)c1O)C(C)C [Cmpd 407]	B (≤ 80)	D	B (≤ 80)	B (≤ 80)				
CCC(CC)[C@@H](Oc1ccc(Cl)cc1Cl)[C@H](C)OC(=O)[C@@H](NC(=O)c1nccc(OC)c1O)C(C)C [Cmpd 408]	B (≤ 80)	D	B (≤ 80)	D				
CCC(CC)[C@@H](Oc1cc(F)ccc1F)[C@H](C)OC(=O)[C@@H](NC(=O)c1nccc(OC)c1O)C(C)C [Cmpd 409]	D	D	B (≤ 80)	B (≤ 80)				
CCC(CC)[C@@H](Oc1cc(F)cc(Cl)c1)[C@H](C)OC(=O)[C@@H](NC(=O)c1nccc(OC)c1O)C(C)C [Cmpd 410]	B (≤ 80)	B (≤ 80)	A (> 80)	B (≤ 80)				
CCC(CC)[C@@H](Oc1ccccc1Cl)[C@H](C)OC(=O)[C@@H](NC(=O)c1nccc(OC)c1O)C(C)C [Cmpd 411]	B (≤ 80)	B (≤ 80)	A (> 80)	D				
CCC(CC)[C@@H](Oc1ccc(C(F)(F)F)cc1)[C@H](C)OC(=O)[C@@H](NC(=O)c1nccc(OC)c1O)C(C)C [Cmpd 412]	B (≤ 80)	B (≤ 80)	B (≤ 80)	D				
CCC(CC)[C@@H](Oc1cccc(-c2ccccc2)c1)[C@H](C)OC(=O)[C@@H](NC(=O)c1nccc(OC)c1O)C(C)C [Cmpd 413]	B (≤ 80)	D	B (≤ 80)	D				
CCC(CC)[C@@H](Oc1ccc(-c2ccccc2)cc1)[C@H](C)OC(=O)[C@@H](NC(=O)c1nccc(OC)c1O)C(C)C [Cmpd 414]	A (> 80)	B (≤ 80)	B (≤ 80)	B (≤ 80)				
C=C[C@H](C)[C@@H](Oc1ccccc1)[C@H](C)OC(=O)[C@H](C)NC(=O)c1nccc(OC)c1O [Cmpd 415]	A (> 80)	A (> 80)	A (> 80)	A (> 80)				
CCCOC(CC)C(Oc1ccccc1)C(C)OC(=O)C1(NC(=O)c2nccc(OC)c2O)CC1 (centres unmarked) [Cmpd 416]	B (≤ 80)	D	B (≤ 80)	D				
CCCOC(CC)C(Oc1ccccc1)C(C)OC(=O)C(C)(C)NC(=O)c1nccc(OC)c1O (centres unmarked) [Cmpd 417]	D	B (≤ 80)	D	D				
CCOc1ccnc(C(=O)N[C@@H](C)C(=O)O[C@@H](C)[C@H](Oc2ccccc2)C(C)C)c1O [Cmpd 418]	B (≤ 80)	D	B (≤ 80)	A (> 80)				
CCC(CC)[C@H](Oc1cccc(F)c1)[C@H](C)OC(=O)[C@H](C)NC(=O)c1nccc(OC)c1O [Cmpd 419]	B (≤ 80)	B (≤ 80)	A (> 80)	D				
CCC(CC)[C@H](Oc1ccc(Cl)cc1)[C@H](C)OC(=O)[C@H](C)NC(=O)c1nccc(OC)c1O [Cmpd 420]	A (> 80)	B (≤ 80)	B (≤ 80)	B (≤ 80)				
CCC(CC)[C@H](Oc1ccc(Cl)cc1Cl)[C@H](C)OC(=O)[C@H](C)NC(=O)c1nccc(OC)c1O [Cmpd 421]	B (≤ 80)	D	B (≤ 80)	D				
